# Results published in patent US11840686B2, “Modulation of prekallikrein (PKK) expression” (Ionis Pharmaceuticals, Inc., priority 2013, dated 2023).
# Strand notation (5' to 3'): a small letter for the sugar, then the base; units joined by * are phosphorothioate-linked, units joined directly phosphodiester-linked; [ ] holds rarer units or linkages, { } end groups; capitals alone tell only the bases. e = 2'-O-(2-methoxyethyl) (MOE); [5mC] = 5-methylcytosine; d = 2'-deoxy (DNA)
# Test system: human PKK mRNA
# Test: Antisense inhibition of human PKK mRNA in HepaRG cells, 5,000 nM (Example 2)
# Format: cell-based
# Settings: Table 13; human PKK mRNA in HepaRG cells; 5-10-5 gapmers
# How it was run: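 Percent inhibition of PKK mRNA is reported relative to untreated cells, after adjustment for total RNA by RIBOGREEN. Gapmers of 16–20 nucleosides with 2′-MOE wings were delivered at 5,000 nM by electroporation into HepaRG cells and left for roughly 24 hours before RNA isolation.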
row,Substance,% inhibition [%]
1,546735 (e[5mC]*eA*eA*e[5mC]*e[5mC]*dT*dG*dT*d[5mC]*d[5mC]*dA*dT*dT*d[5mC]*d[5mC]*e[5mC]*eT*eG*eG*eG; antisense) [compound 546735],46
2,546746 (eT*e[5mC]*e[5mC]*eT*eG*dT*dT*dG*d[5mC]*d[5mC]*dT*dG*dA*d[5mC]*dA*eT*eG*e[5mC]*eT*eA; antisense) [compound 546746],65
3,546747 (e[5mC]*eT*e[5mC]*e[5mC]*e[5mC]*dA*d[5mC]*dT*dG*dA*d[5mC]*dT*dG*dA*d[5mC]*eT*eA*e[5mC]*eT*e[5mC]; antisense) [compound 546747],64
4,546749 (eG*e[5mC]*eT*eG*eG*dT*d[5mC]*d[5mC]*dT*dT*dG*dA*dA*d[5mC]*d[5mC]*e[5mC]*e[5mC]*eG*eT*eG; antisense) [compound 546749],53
5,546756 (eA*eT*eA*eA*eG*d[5mC]*dA*dT*d[5mC]*dT*d[5mC]*dT*d[5mC]*dT*dG*eA*e[5mC]*e[5mC]*eT*eA; antisense) [compound 546756],47
6,546763 (eG*e[5mC]*eT*eT*e[5mC]*d[5mC]*d[5mC]*d[5mC]*dA*dA*dT*dA*d[5mC]*dT*dT*eG*e[5mC]*eT*eG*eG; antisense) [compound 546763],84
7,546765 (eG*eT*eG*eT*e[5mC]*d[5mC]*dA*dG*dA*dA*dT*dA*d[5mC]*dT*dG*e[5mC]*e[5mC]*e[5mC]*e[5mC]*eA; antisense) [compound 546765],82
8,546770 (eG*eT*eG*eG*eA*d[5mC]*dG*dA*d[5mC]*dT*dG*d[5mC]*d[5mC]*d[5mC]*dT*eG*eT*eG*e[5mC]*e[5mC]; antisense) [compound 546770],74
9,546773 (eT*e[5mC]*eT*e[5mC]*eT*dA*dG*d[5mC]*dA*dT*d[5mC]*d[5mC]*dT*dA*dG*eT*e[5mC]*e[5mC]*eT*e[5mC]; antisense) [compound 546773],67
10,546780 (eA*eT*eA*e[5mC]*eT*dG*dG*d[5mC]*dT*dA*dA*dG*dT*d[5mC]*dA*eG*eG*e[5mC]*e[5mC]*e[5mC]; antisense) [compound 546780],83
11,546784 (eG*eG*e[5mC]*eA*eG*dG*dG*dA*dG*dG*dT*dG*dG*dA*dT*eT*eA*eT*eT*e[5mC]; antisense) [compound 546784],58
12,546789 (eG*e[5mC]*eT*eT*e[5mC]*dT*d[5mC]*dT*dA*dT*d[5mC]*dT*d[5mC]*d[5mC]*d[5mC]*eA*eG*eT*eG*eT; antisense) [compound 546789],79
13,546791 (eG*eA*eT*eG*e[5mC]*dA*dT*dG*d[5mC]*dA*dG*d[5mC]*dA*dA*dT*eA*e[5mC]*eA*eG*eG; antisense) [compound 546791],52
14,546795 (eG*eT*e[5mC]*eT*e[5mC]*dG*dA*dT*dG*dG*d[5mC]*dA*dA*dG*d[5mC]*eT*eG*eT*eA*e[5mC]; antisense) [compound 546795],72
15,546796 (eG*eT*eA*e[5mC]*eT*d[5mC]*dA*d[5mC]*d[5mC]*dG*dG*dT*dA*d[5mC]*dT*e[5mC]*eT*eG*e[5mC]*e[5mC]; antisense) [compound 546796],82
16,546799 (eA*eT*eG*eA*eA*dG*dG*dG*d[5mC]*dG*dA*dG*dG*d[5mC]*dG*e[5mC]*eA*eG*eT*eG; antisense) [compound 546799],5
17,546803 (e[5mC]*e[5mC]*e[5mC]*e[5mC]*eA*dT*dA*d[5mC]*dA*dT*d[5mC]*dT*dA*dT*dG*e[5mC]*eA*eA*eA*eT; antisense) [compound 546803],40
18,546804 (eA*e[5mC]*eA*eT*eG*dA*d[5mC]*dT*d[5mC]*d[5mC]*dA*dG*dT*dG*dA*eT*eG*eG*eA*eT; antisense) [compound 546804],57
19,546808 (eA*eA*eA*eA*eT*dG*dA*d[5mC]*dA*d[5mC]*d[5mC]*dA*dA*dA*dA*eT*eT*e[5mC]*eG*e[5mC]; antisense) [compound 546808],0
